{
  "source": "patent US20220009920A1",
  "about": "(GB005, Inc., priority 2020, published 2022)",
  "key": {"BTK": {"target": "T1, BTK (Homo sapiens, UniProt Q06187)", "T1 construct": "purchased Cama", "T1 sequence (Q06187 whole entry)": "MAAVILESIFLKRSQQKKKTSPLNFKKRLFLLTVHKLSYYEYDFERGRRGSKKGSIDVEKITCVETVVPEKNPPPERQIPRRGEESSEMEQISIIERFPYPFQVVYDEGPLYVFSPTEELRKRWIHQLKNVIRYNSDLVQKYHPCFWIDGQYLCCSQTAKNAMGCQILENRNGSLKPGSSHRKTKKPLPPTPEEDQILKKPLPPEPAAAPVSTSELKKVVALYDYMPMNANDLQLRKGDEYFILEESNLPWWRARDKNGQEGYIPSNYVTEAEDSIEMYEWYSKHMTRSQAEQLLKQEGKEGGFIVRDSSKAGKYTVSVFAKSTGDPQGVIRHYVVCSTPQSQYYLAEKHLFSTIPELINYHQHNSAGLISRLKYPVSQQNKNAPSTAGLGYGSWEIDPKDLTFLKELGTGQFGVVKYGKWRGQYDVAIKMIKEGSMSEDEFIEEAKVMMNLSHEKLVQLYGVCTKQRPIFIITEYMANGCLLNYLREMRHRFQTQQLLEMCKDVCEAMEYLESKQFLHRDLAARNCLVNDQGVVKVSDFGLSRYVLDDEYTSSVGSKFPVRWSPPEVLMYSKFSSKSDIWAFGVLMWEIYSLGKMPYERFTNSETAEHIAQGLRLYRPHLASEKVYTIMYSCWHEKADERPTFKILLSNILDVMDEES", "test": "Assay to determine activity against BTK", "format": "biochemical", "details": "1 mM ATP, 2 nM BTK, 90 minutes at room temperature", "procedure,_shortened": "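Recombinant BTK (2 nM) was assayed with 1.5 µM FL-peptide and 1 mM ATP in pH 7.5 HEPES buffer with MgCl2, DTT, BSA and EGTA, for 90 min at room temperature before an EDTA stop. Peptide conversion ratio was read by mobility-shift, and IC50 came from 11-point 3-fold dilution curves.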"}, "BTK in RAMOS B cells": {"test_system": "BTK in RAMOS B cells", "test": "Assay to determine BTK activity in RAMOS B cells (anti-IgM, FLIPR Calcium 6)", "format": "cell-based", "details": "Homo sapiens, Ramos, anti-IgM EC80, calcium readout"}, "[1]": {"test": "Plasma and total brain concentrations at 1 h post single oral administration to female C57BL/6 mice", "format": "in vivo", "details": "mouse, 10 mg/kg oral gavage; for Kp at 1 h: brain/plasma, read-out: brain to plasma ratio", "procedure": "The appropriate amount of test article was dissolved 10% dimethylacetamide (DMA)/90% (20% hydroxypropyl-β-cyclodextrin (HP-B-CD) w/v in water to obtain a final concentration of 1 mg/mL for oral dosing. Sonication, vortex, and homogenization was used as needed. Three female C57BL/6 mice aged 7-9 weeks (20-30 grams) were dosed by oral gavage 10 mg/kg solution of the test article.\nConcentrations of test compounds in the plasma and brain samples (use plasma and brain homogenate standard curve for all samples appropriately) were analyzed using LC-MS/MS. Compounds having a brain-to-plasma ratio of greater than 0.2 were considered brain penetrant."}, "[2]": {"details": "plasma, read-out: Mean [plasma]"}},
  "note": "Read-outs that look alike come from different tables or passages of the source.",
  "data": [
    {"smiles": "C=CC(=O)N1CCC=C(c2c(F)cc(C(N)=O)c3[nH]c4c(c23)CCCCC4)C1", "note": "[Compound 5-4, 1-(1-acryloyl-1,2,5,6-tetrahydropyridin-3-yl)-2-fluoro-5,6,7,8,9,10-hexahydrocyclohepta[b]indole-4-carboxamide]", "values": [
      {"measurement": "IC50", "setting": "BTK", "result": "< 0.01", "unit": "µM"},
      {"measurement": "IC50", "setting": "BTK in RAMOS B cells", "result": "0.01 to 0.1", "unit": "µM"},
      {"measurement": "concentration at 1 h", "setting": "[1]; brain, read-out: Mean [brain]", "result": 4, "unit": "ng/g"},
      {"measurement": "Kp at 1 h", "setting": "[1]", "result": 0.22},
      {"measurement": "concentration at 1 h", "setting": "[1]; [2]", "result": 0.018, "unit": "µg/mL"}
    ]},
    {"smiles": "C=CC(=O)N1CCc2c(cccc2-c2ccc(C(N)=O)c3[nH]c4c(c23)CC2(CC4)CC2)C1", "note": "[Compound 7-2, 5-(2-acryloyl-1,2,3,4-tetrahydroisoquinolin-5-yl)-1,2,4,9-tetrahydrospiro[carbazole-3,1′-cyclopropane]-8-carboxamide]", "values": [
      {"measurement": "IC50", "setting": "BTK", "result": "0.01 to 0.1", "unit": "µM"},
      {"measurement": "IC50", "setting": "BTK in RAMOS B cells", "result": "≥ 0.1", "unit": "µM"},
      {"measurement": "concentration at 1 h", "setting": "[1]; brain, read-out: Mean [brain]", "result": 43, "unit": "ng/g"},
      {"measurement": "Kp at 1 h", "setting": "[1]", "result": 0.39},
      {"measurement": "concentration at 1 h", "setting": "[1]; [2]", "result": 0.109, "unit": "µg/mL"}
    ]},
    {"smiles": "CC#CC(=O)N1CCC[C@H]1c1nc(-c2ccc(C(=O)Nc3ccccn3)cc2)c2c(N)nccn12", "note": "[Acalabrutinib, reference compound]", "values": [
      {"measurement": "concentration at 1 h", "setting": "[1]; brain, read-out: Mean [brain]", "result": 4, "unit": "ng/g"},
      {"measurement": "Kp at 1 h", "setting": "[1]", "result": 0.04},
      {"measurement": "concentration at 1 h", "setting": "[1]; [2]", "result": 0.12, "unit": "µg/mL"}
    ]},
    {"smiles": "C=CC(=O)N1CCC[C@@H](c2cnc(C(N)=O)c3[nH]c4c(c23)CCCC4)C1", "note": "[Compound 2-4, (S)-4-(1-acryloylpiperidin-3-yl)-6,7,8,9-tetrahydro-5H-pyrido[3,4-b]indole-1-carboxamide]", "values": [
      {"measurement": "IC50", "setting": "BTK", "result": "< 0.01", "unit": "µM"},
      {"measurement": "IC50", "setting": "BTK in RAMOS B cells", "result": "< 0.01", "unit": "µM"},
      {"measurement": "concentration at 1 h", "setting": "[1]; brain, read-out: Mean [brain]", "result": 39, "unit": "ng/g"},
      {"measurement": "Kp at 1 h", "setting": "[1]", "result": 0.24},
      {"measurement": "concentration at 1 h", "setting": "[1]; [2]", "result": 0.163, "unit": "µg/mL"}
    ]},
    {"smiles": "C=CC(=O)N1CCC[C@@H](n2nc(-c3ccc(Oc4ccccc4)cc3)c3c(N)ncnc32)C1", "note": "[Ibrutinib, reference compound]", "values": [
      {"measurement": "concentration at 1 h", "setting": "[1]; brain, read-out: Mean [brain]", "result": 15, "unit": "ng/g"},
      {"measurement": "Kp at 1 h", "setting": "[1]", "result": 0.001},
      {"measurement": "concentration at 1 h", "setting": "[1]; [2]", "result": 0.306, "unit": "µg/mL"}
    ]}
  ]
}
